# Values quoted from earlier work in patent publication US20240091144A1, “MULTI-LAYER ORAL THIN FILM” (LTS Lohmann Therapie-Systeme AG, priority 2021, published 2024).
# Tests used:
# [1] = at 20° C.
# [2] = compared with (R)-ketamine
SMILES,pKs [1],analgesic and anaesthetic potency relative to the (R) form [2]
"NC(CO)(CO)CO [TRIS, tris(hydroxymethyl)aminomethane]",8.2,
"CNC1(c2ccccc2Cl)CCCCC1=O (racemic) [(S)-ketamine, (S)-(±)-2-(2-chlorophenyl)-2-(methylamino)cyclohexan-1-one]",,approximately three times higher
